Results on two compounds are retold here after patent US9428476B2, “S-imino-S-oxo-iminothiadiazine compounds as BACE inhibitors, compositions, and their use” (Merck Sharp & Dohme Corp., priority 2013, dated 2016).

As a reminder, the Ki is the equilibrium dissociation constant of an inhibitor or competing ligand from its target.

Assay [1] addresses soluble human BACE1 catalytic domain (Homo sapiens (Human), UniProt P56817). Kind of assay: BACE1 HTRF FRET Assay. It is filed as biochemical. Conditions: Ki calculated from IC50 using the Cheng-Prusoff equation; QSY7-APPswe-Eu substrate, pH 5.0. The text has this: Na^+-Acetate pH 5.0; 1% Brij-35; Glycerol; Dimethyl Sulfoxide (DMSO); Recombinant human soluble BACE1 catalytic domain (>95% pure); APP Swedish mutant peptide substrate (QSY7-APP^swe-Eu): QSY7-EISEVNLDAEFC-Europium-amide.
A homogeneous time-resolved FRET assay can be used to determine IC50 values for inhibitors of the soluble human BACE1 catalytic domain. This assay monitors the increase of 620 nm fluorescence that resulted from BACE1 cleavage of an APPswedish APP^swe mutant peptide FRET substrate (QSY7-EISEVNLDAEFC-Europium-amide). This substrate contains an N-terminal QSY7 moiety that serves as a quencher of the C-terminal Europium fluorophore (620 nm Em). In the absence of enzyme activity, 620 nm fluorescence is low in the assay and increased linearly over 3 hours in the presence of uninhibited BACE1 enzyme Inhibition of BACE1 cleavage of the QSY7-APP^swe-Eu substrate by inhibitors is manifested as a suppression of 620 nm fluorescence.
Varying concentrations of inhibitors at 3× the final desired concentration in a volume of 10 ul are preincubated with purified human BACE1 catalytic domain (3 nM in 10 μl) for 30 minutes at 30° C. in reaction buffer containing 20 mM Na-Acetate pH 5.0, 10% glycerol, 0.1% Brij-35 and 7.5% DSMO. […]

Assay [2] addresses purified human autoBACE-2 (Homo sapiens (Human), UniProt Q9Y5Z0). The assay can be described thus: BACE-2 Assay (BACE-HTRF assay). Type of assay: biochemical. Conditions: Ki calculated from IC50 using the Cheng-Prusoff equation; QSY7-EISEVNLDAEFC-Eu-amide substrate, pH 5.0; read-out: BACE2 Ki. On the procedure:
Inhibitor IC50s at purified human autoBACE-2 are determined in a time-resolved endpoint proteolysis assay that measures hydrolysis of the QSY7-EISEVNLDAEFC-Eu-amide FRET peptide substrate (BACE-HTRF assay). BACE-mediated hydrolysis of this peptide results in an increase in relative fluorescence (RFU) at 620 nm after excitation with 320 nm light Inhibitor compounds, prepared at 3× the desired final concentration in 1×BACE assay buffer (20 mM sodium acetate pH 5.0, 10% glycerol, 0.1% Brij-35) supplemented with 7.5% DMSO are pre-incubated with an equal volume of autoBACE-2 enzyme diluted in 1×BACE assay buffer (final enzyme concentration 1 nM) in black 384-well NUNC plates for 30 minutes at 30° C. […] Following laser excitation of sample wells at 320 nm, the fluorescence signal at 620 nm is collected for 400 ms following a 50 μs delay on a RUBYstar HTRF plate reader (BMG Labtechnologies). […] IC50, are determined by nonlinear regression analysis (sigmoidal dose response, variable slope) of percent inhibition data with minimum and maximum values set to 0 and 100 percent respectively. […] The Ki values are calculated from the IC50 using the Cheng-Prusoff equation.

SMILES strings stand for the structures.

purified human autoBACE-2, sequence (Q9Y5Z0 63-473 limits assumed): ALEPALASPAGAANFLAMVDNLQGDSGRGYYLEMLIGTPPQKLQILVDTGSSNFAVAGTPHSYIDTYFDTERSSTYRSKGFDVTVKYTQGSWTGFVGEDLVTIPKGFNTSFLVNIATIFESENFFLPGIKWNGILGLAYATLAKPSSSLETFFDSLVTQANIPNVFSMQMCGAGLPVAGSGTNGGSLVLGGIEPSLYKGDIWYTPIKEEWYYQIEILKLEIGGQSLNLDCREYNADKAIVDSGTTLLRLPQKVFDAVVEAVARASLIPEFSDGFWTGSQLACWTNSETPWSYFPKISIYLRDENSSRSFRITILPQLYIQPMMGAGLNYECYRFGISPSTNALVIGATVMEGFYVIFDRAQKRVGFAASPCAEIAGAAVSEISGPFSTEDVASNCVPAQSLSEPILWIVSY
soluble human BACE1 catalytic domain, sequence (P56817 75-416): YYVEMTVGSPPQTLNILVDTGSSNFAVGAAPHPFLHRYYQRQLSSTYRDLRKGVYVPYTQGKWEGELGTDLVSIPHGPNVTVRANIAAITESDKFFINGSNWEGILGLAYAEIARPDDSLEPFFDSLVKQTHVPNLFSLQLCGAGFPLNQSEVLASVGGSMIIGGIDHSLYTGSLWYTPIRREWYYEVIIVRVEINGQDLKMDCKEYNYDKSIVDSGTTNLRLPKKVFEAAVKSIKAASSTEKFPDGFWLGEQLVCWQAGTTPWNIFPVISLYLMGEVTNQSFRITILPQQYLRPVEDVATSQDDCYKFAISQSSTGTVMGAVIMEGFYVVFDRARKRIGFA

For `CCN=S1(=O)C[C@@](C)(c2cc(NC(=O)c3ccc(Cl)cn3)ccc2F)NC(=N)N1C` (stereo partly shown) [Example 5], the Ki is 8 nM in assay [1] and 3 nM in assay [2].
Turning to `CCN1C(=N)N[C@](C)(c2cc(NC(=O)c3ccc(Cl)cn3)ccc2F)CS1(=O)=NC` (stereo partly shown) [Example 6], the values for the Ki in assay [1] and in assay [2] were 10 nM and 3 nM, respectively.
